In US20140037798A1, “LIQUID NUTRITIONAL PRODUCTS COMPRISING METAL AMINO ACID CHELATES” (ABBOTT LABORATORIES, priority 2011, published 2014):

Columns and labels:
[1] = Methionine sulfoxide concentration in nutritional emulsion, marker of reactive oxygen species generation; type: physicochemical; conditions: copper ingredient 35 μM, retort sterilized
[2] = Vitamin B12 recovery in retort sterilized chocolate flavored nutritional emulsion (validated HPLC); conditions: copper ingredient 35 μM
Procedure: Once prepared, the emulsions are analyzed for vitamin B12 recovery using a fully validated HPLC method to determine the amount of vitamin B12 remaining (i.e., not lost to oxidative destruction) in the nutritional emulsion.

[3] = cocoa powder 0.80% (w/w), pH 6.8 HEPES, cocoa powder:iron 40:1, 99° C. thirty minutes, 0.45 μm filtrate
Procedure: The visible absorbance of liquids including a mixture of cocoa powder and an iron-containing component is measured to determine the ability of various ferric salts, including ferric amino acid chelates, to decrease reactivity between the iron and the cocoa powder.
Various samples are prepared as described herein using various iron-containing components. All mixtures contain cocoa powder at 0.80% (w/w) in pH 6.8 buffer (0.10M HEPES). The control liquid is prepared without any iron-containing component. In the remaining samples, the iron components are added so that the weight ratio of cocoa powder:iron is 40:1 (w/w).

| Compound | Methionine sulfoxide, as mole % of total methionine [1] [%] | Vitamin B12 [2] [µg/kg] | Absorbance, Filtrate v. Blank, 535 nm [3] [mAU] | Absorbance, Filtrate v. Blank, 600 nm [3] [mAU] | Absorbance, Filtrate v. Blank, 700 nm [3] [mAU] |
| --- | --- | --- | --- | --- | --- |
| O.O.O.O.O.O=S(=O)([O-])[O-].[Cu+2] [Control (CuSO4), copper sulfate pentahydrate, reference compound] | 18.8 | 38.5 |  |  |  |
| NCC(=O)[O-].NCC(=O)[O-].[Cu+2] [Copper bis-glycinate chelate, copper bis-glycinate chelate] | 18.1 | 41.3 |  |  |  |
| O=P([O-])([O-])[O-].[Fe+3] [Ferric orthophosphate, reference compound] |  |  | 579 | 237 | 65 |
| NCC(=O)[O-].NCC(=O)[O-].[Fe+2] [Ferrous bis-glycinate] |  |  | 1200 | 1040 | 567 |
| Ferric bis-glycinate |  |  | 610 | 319 | 101 |
| Ferrous gluconate |  |  | 1230 | 1100 | 607 |
| Ferrous sulfate [reference compound] |  |  | 1240 | 1150 | 688 |
| copper gluconate | 17.9 | 46.4 |  |  |  |
| copper lysine chelate | 17.4 | 47.0 |  |  |  |
